# Test results reported in paper PMC6219668 (Oncotarget, 2018).
# Like-named read-outs stand apart in the source and are kept apart here.
# Tested on: panel of nearly 500 cancer cell lines
# Assay: Cancer Cell Line Encyclopedia profiling, 3-day CellTiter-Glo
# Format: cell-based
# Details: read-out: IC50
smiles,measurement,setting,value
CC(=O)c1c(C)c2cnc(Nc3ccc(N4CCNCC4)cn3)nc2n(C2CCCC2)c1=O [Palbociblib],IC50,22rv1 (prostate),> 8 µM
same,IC50,639v (urinary_tract),> 8 µM
same,IC50,769p (kidney),6.7 µM
same,IC50,5637 (urinary_tract),> 8 µM
same,IC50,8305c (thyroid),5.34 µM
same,IC50,8505c (thyroid),> 8 µM
same,IC50,a172 (central_nervous_system),> 8 µM
same,IC50,a204 (soft_tissue),> 8 µM
same,IC50,a253 (salivary_gland),> 8 µM
same,IC50,a375 (skin),> 8 µM
same,IC50,a549 (lung),> 8 µM
same,IC50,a673 (bone),> 8 µM
same,IC50,a2058 (skin),> 8 µM
same,IC50,a2780 (ovary),> 8 µM
same,IC50,amo1 (haematopoietic_and_lymphoid_tissue),> 8 µM
same,IC50,an3ca (endometrium),7.05 µM
same,IC50,aspc1 (pancreas),> 8 µM
same,IC50,au565 (breast),7.56 µM
same,IC50,az521 (stomach),> 8 µM
same,IC50,bdcm (haematopoietic_and_lymphoid_tissue),1.92 µM
same,IC50,bftc909 (kidney),> 8 µM
same,IC50,bgc823 (stomach),> 8 µM
same,IC50,bl41 (haematopoietic_and_lymphoid_tissue),> 8 µM
same,IC50,bl70 (haematopoietic_and_lymphoid_tissue),4.53 µM
same,IC50,bt20 (breast),> 8 µM
same,IC50,bt474 (breast),> 8 µM
same,IC50,bt549 (breast),> 8 µM
same,IC50,c2bbe1 (large_intestine),> 8 µM
same,IC50,c3a (liver),> 8 µM
same,IC50,c32 (skin),> 8 µM
same,IC50,caki2 (kidney),> 8 µM
same,IC50,cal27 (upper_aerodigestive_tract),> 8 µM
same,IC50,cal78 (bone),> 8 µM
same,IC50,cal851 (breast),> 8 µM
same,IC50,calu1 (lung),> 8 µM
same,IC50,calu3 (lung),> 8 µM
same,IC50,cama1 (breast),> 8 µM
same,IC50,capan2 (pancreas),> 8 µM
same,IC50,cas1 (central_nervous_system),> 8 µM
same,IC50,"cell line tyknu, ovary",> 8 µM
same,IC50,"cell line u87mg, central_nervous_system",> 8 µM
same,IC50,"cell line u118mg, central_nervous_system",> 8 µM
same,IC50,"cell line u2os, bone",> 8 µM
same,IC50,"cell line u937, haematopoietic_and_lymphoid_tissue",> 8 µM
same,IC50,"cell line uacc812, breast",> 8 µM
same,IC50,"cell line umuc3, urinary_tract",> 8 µM
same,IC50,"cell line vmrclcd, lung",1.86 µM
same,IC50,"cell line vmrcrcw, kidney",> 8 µM
same,IC50,"cell line vmrcrcz, kidney",> 8 µM
same,IC50,"cell line ykg1, central_nervous_system",7.34 µM
same,IC50,"cell line zr7530, breast",> 8 µM
same,IC50,chl1 (skin),> 8 µM
same,IC50,ci1 (haematopoietic_and_lymphoid_tissue),6.5 µM
same,IC50,cmk (haematopoietic_and_lymphoid_tissue),5.49 µM
same,IC50,colo201 (large_intestine),1.48 µM
same,IC50,colo205 (large_intestine),7.19 µM
same,IC50,colo320 (large_intestine),6.83 µM
same,IC50,colo679 (skin),> 8 µM
same,IC50,corl23 (lung),> 8 µM
same,IC50,corl23cpr (lung),> 8 µM
same,IC50,cov318 (ovary),> 8 µM
same,IC50,cov504 (ovary),> 8 µM
same,IC50,daoy (central_nervous_system),> 8 µM
same,IC50,dbtrg05mg (central_nervous_system),> 8 µM
same,IC50,detroit562 (upper_aerodigestive_tract),3.17 µM
same,IC50,dkmg (central_nervous_system),> 8 µM
same,IC50,dms114 (lung),> 8 µM
same,IC50,dov13 (ovary),> 8 µM
same,IC50,du145 (prostate),> 8 µM
same,IC50,eb1 (haematopoietic_and_lymphoid_tissue),> 8 µM
same,IC50,eb2 (haematopoietic_and_lymphoid_tissue),> 8 µM
same,IC50,ebc1 (lung),> 8 µM
same,IC50,efe184 (endometrium),> 8 µM
same,IC50,efm19 (breast),> 8 µM
same,IC50,efo21 (ovary),> 8 µM
same,IC50,efo27 (ovary),> 8 µM
same,IC50,en (endometrium),> 8 µM
same,IC50,es2 (ovary),> 8 µM
same,IC50,fadu (upper_aerodigestive_tract),> 8 µM
same,IC50,fuov1 (ovary),> 8 µM
same,IC50,g361 (skin),> 8 µM
same,IC50,g401 (soft_tissue),> 8 µM
same,IC50,gb1 (central_nervous_system),> 8 µM
same,IC50,gciy (stomach),> 8 µM
same,IC50,gct (soft_tissue),4.08 µM
same,IC50,glc82 (lung),> 8 µM
same,IC50,gms10 (central_nervous_system),> 8 µM
same,IC50,h4 (central_nervous_system),> 8 µM
same,IC50,hcc15 (lung),> 8 µM
same,IC50,hcc56 (large_intestine),> 8 µM
same,IC50,hcc70 (breast),> 8 µM
same,IC50,hcc78 (lung),> 8 µM
same,IC50,hcc1187 (breast),> 8 µM
same,IC50,hcc1569 (breast),> 8 µM
same,IC50,hcc1806 (breast),> 8 µM
same,IC50,hcc1954 (breast),2.51 µM
same,IC50,hcc2935 (lung),> 8 µM
same,IC50,hcc4006 (lung),> 8 µM
same,IC50,hct15 (large_intestine),> 8 µM
same,IC50,hct116 (large_intestine),> 8 µM
same,IC50,hec1a (endometrium),> 8 µM
same,IC50,hec1b (endometrium),4.96 µM
same,IC50,hec59 (endometrium),> 8 µM
same,IC50,hec151 (endometrium),> 8 µM
same,IC50,hec251 (endometrium),> 8 µM
same,IC50,hec265 (endometrium),> 8 µM
same,IC50,hel9217 (haematopoietic_and_lymphoid_tissue),> 8 µM
same,IC50,hep3b217 (liver),> 8 µM
same,IC50,hepg2 (liver),> 8 µM
same,IC50,heya8 (ovary),> 8 µM
same,IC50,hgc27 (stomach),1.74 µM
same,IC50,hh (haematopoietic_and_lymphoid_tissue),> 8 µM
same,IC50,hle (liver),> 8 µM
same,IC50,hlf (liver),> 8 µM
same,IC50,hmc18 (breast),> 8 µM
same,IC50,hmcb (skin),> 8 µM
same,IC50,hos (bone),> 8 µM
same,IC50,hpac (pancreas),> 8 µM
same,IC50,hs229t (lung),> 8 µM
same,IC50,hs294t (skin),> 8 µM
same,IC50,hs578t (breast),> 8 µM
same,IC50,hs683 (central_nervous_system),> 8 µM
same,IC50,hs695t (skin),> 8 µM
same,IC50,hs739t (breast),> 8 µM
same,IC50,hs746t (stomach),> 8 µM
same,IC50,hs766t (pancreas),> 8 µM
same,IC50,hs840t (upper_aerodigestive_tract),> 8 µM
same,IC50,hs852t (skin),> 8 µM
same,IC50,hs895t (skin),0.446 µM
same,IC50,hs936t (skin),> 8 µM
same,IC50,hs939t (skin),> 8 µM
same,IC50,hs944t (skin),> 8 µM
same,IC50,hsc2 (upper_aerodigestive_tract),> 8 µM
same,IC50,ht29 (large_intestine),> 8 µM
same,IC50,ht144 (skin),> 8 µM
same,IC50,ht1080 (soft_tissue),> 8 µM
same,IC50,ht1197 (urinary_tract),> 8 µM
same,IC50,ht1376 (urinary_tract),> 8 µM
same,IC50,ht (haematopoietic_and_lymphoid_tissue),> 8 µM
same,IC50,hucct1 (biliary_tract),> 8 µM
same,IC50,huh1 (liver),> 8 µM
same,IC50,hupt3 (pancreas),> 8 µM
same,IC50,hupt4 (pancreas),> 8 µM
same,IC50,hut78 (haematopoietic_and_lymphoid_tissue),> 8 µM
same,IC50,ialm (lung),> 8 µM
same,IC50,igr37 (skin),> 8 µM
same,IC50,igr39 (skin),> 8 µM
same,IC50,igrov1 (ovary),> 8 µM
same,IC50,imr32 (autonomic_ganglia),> 8 µM
same,IC50,ipc298 (skin),> 8 µM
same,IC50,istmes1 (pleura),> 8 µM
same,IC50,istmes2 (pleura),0.428 µM
same,IC50,j82 (urinary_tract),> 8 µM
same,IC50,jhh2 (liver),> 8 µM
same,IC50,jhh4 (liver),> 8 µM
same,IC50,jhh6 (liver),> 8 µM
same,IC50,jhos2 (ovary),> 8 µM
same,IC50,jhos4 (ovary),> 8 µM
same,IC50,jm1 (haematopoietic_and_lymphoid_tissue),> 8 µM
same,IC50,jmsu1 (urinary_tract),> 8 µM
same,IC50,k029ax (skin),> 8 µM
same,IC50,kals1 (central_nervous_system),> 8 µM
same,IC50,karpas299 (haematopoietic_and_lymphoid_tissue),7.35 µM
same,IC50,karpas422 (haematopoietic_and_lymphoid_tissue),> 8 µM
same,IC50,ke39 (stomach),3.54 µM
same,IC50,ke97 (haematopoietic_and_lymphoid_tissue),2.59 µM
same,IC50,kg1 (haematopoietic_and_lymphoid_tissue),> 8 µM
same,IC50,kle (endometrium),> 8 µM
same,IC50,kmbc2 (urinary_tract),> 8 µM
same,IC50,kmrc1 (kidney),> 8 µM
same,IC50,kms12bm (haematopoietic_and_lymphoid_tissue),> 8 µM
same,IC50,kms26 (haematopoietic_and_lymphoid_tissue),1.67 µM
same,IC50,kns42 (central_nervous_system),> 8 µM
same,IC50,kns60 (central_nervous_system),> 8 µM
same,IC50,kp1n (pancreas),> 8 µM
same,IC50,kp1nl (pancreas),> 8 µM
same,IC50,kp2 (pancreas),> 8 µM
same,IC50,kp3 (pancreas),> 8 µM
same,IC50,kp4 (pancreas),> 8 µM
same,IC50,ku812 (haematopoietic_and_lymphoid_tissue),6.25 µM
same,IC50,kyse30 (oesophagus),> 8 µM
same,IC50,kyse410 (oesophagus),> 8 µM
same,IC50,kyse520 (oesophagus),> 8 µM
same,IC50,l33 (pancreas),> 8 µM
same,IC50,lc1sqsf (lung),> 8 µM
same,IC50,lclc103h (lung),> 8 µM
same,IC50,ln18 (central_nervous_system),> 8 µM
same,IC50,ln229 (central_nervous_system),> 8 µM
same,IC50,lounh91 (lung),> 8 µM
